The assay concerns the target T1, GST-FAK (N-terminal GST fusion with truncated human FAK (376-1052 (end) amino acids)) (Homo sapiens, UniProt Q05397).
T1 construct: truncated human FAK (376-1052 (end) amino acids)
The experiment in a line: Biochemical enzyme assay for FAK activity (Caliper LC3000 mobility shift). To be noted: Table 1; 100 uM ATP; read-out: FAK IC50. Here is the method: 1. Biochemical Enzyme Assays for FAK Activity
The FAK assays described here are performed on two Caliper Life Sciences systems, the LC3000 and the EZ Reader II. These provide data on enzyme activity via measurement of the relative amounts of phosphorylated or unphosphorylated fluorescently labelled substrate peptide at the end of an enzymatic reaction. These different states of peptide are resolved by applying a potential difference across the sample. The presence of the charged phosphate group on the product (as opposed to the substrate) causes different peptide mobility between the two peptides. This is visualized by excitation of the fluorescent label on the substrate and product peptides and represented as peaks within the analysis software.
In order to measure inhibitor activity of FAK, inhibitors in the Caliper Life Sciences LC3000, a TTP Mosquito liquid handling instrument is used to place 0.25 ul of the appropriate concentration of inhibitor in 100% DMSO (for a dose response curve calculation) into each well of a 384-well plate. To this reaction components are added to a final volume of 25 ul: • 0.067 ng/ul GST-FAK (N-terminal GST fusion with truncated human FAK (376-1052 (end) amino acids)) • 100 uM ATP • 1 mM DTT • 1 mM MgCl2 • 1 uM substrate peptide (sequence FITC-KGWMEDYDYVHLQGKK-(CONH2)SEQ ID NO: 1)) • 1 mM FERM peptide (sequence NH2-GATQSFIIR-COOH (SEQ ID NO: 2)) • 100 mM HEPES pH 7.5 • 0.015% Brij-35
The reaction is incubated for 90 min at 25 C, and then stopped by the addition of 70 ul of Stop buffer (100 mM HEPES pH 7.5, 0.015% Brij-35, 10 mM EDTA).
The plate is read on a Caliper LC 3000 in an Off-Chip mobility shift assay format, using the following parameters for a 12-sipper chip: screening pressure—1.9 psi, upstream voltage—3000, downstream voltage—700. These conditions cause unphosphorylated substrate and phosphorylated product peptide to resolve as separate peaks allowing direct measurement of percentage of conversion of substrate to product. The percent conversion can be plotted against concentration of inhibitor to produce a sigmoid dose response curve, from which an IC50 can be calculated using XLFit for Microsoft Excel.

T1 sequence (Q05397 376-1052): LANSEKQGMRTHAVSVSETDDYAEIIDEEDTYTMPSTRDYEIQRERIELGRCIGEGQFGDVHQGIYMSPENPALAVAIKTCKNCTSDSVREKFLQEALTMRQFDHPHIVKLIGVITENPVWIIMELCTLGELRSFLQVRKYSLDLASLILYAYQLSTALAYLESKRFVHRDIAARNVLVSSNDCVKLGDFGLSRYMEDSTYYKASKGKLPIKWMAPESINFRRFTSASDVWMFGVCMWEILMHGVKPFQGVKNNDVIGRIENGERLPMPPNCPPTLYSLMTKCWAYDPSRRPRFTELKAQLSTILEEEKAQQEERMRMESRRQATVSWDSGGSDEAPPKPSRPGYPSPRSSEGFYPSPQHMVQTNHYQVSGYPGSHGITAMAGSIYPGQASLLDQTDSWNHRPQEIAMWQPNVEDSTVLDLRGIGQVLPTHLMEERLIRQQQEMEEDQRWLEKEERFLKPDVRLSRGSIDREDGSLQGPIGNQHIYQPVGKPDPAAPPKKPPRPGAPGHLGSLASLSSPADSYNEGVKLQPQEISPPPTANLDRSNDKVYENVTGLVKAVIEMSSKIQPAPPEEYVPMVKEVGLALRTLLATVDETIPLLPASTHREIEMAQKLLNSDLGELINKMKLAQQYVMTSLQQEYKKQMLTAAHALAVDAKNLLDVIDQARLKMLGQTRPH

For orientation: IC50 means the concentration at which inhibition is half-maximal. Take `COc1cncc(-c2nccc(NCc3ccc(OC)c(F)c3F)n2)c1` [Compound 1, (2,3-Difluoro-4-methoxy-benzyl)-[2-(5-methoxy-pyridin-3-yl)-pyrimidin-4-yl]-amine]: the IC50 was 1 to 10 µM. The value for `COc1cncc(-c2nccc(NCc3ccc(Oc4ccc(F)cc4)cc3)n2)c1` [Compound 2, [4-(4-Fluoro-phenoxy)-benzyl]-[2-(5-methoxy-pyridin-3-yl)-pyrimidin-4-yl]-amine] was over 10 µM; that for `COc1cncc(-c2nccc(NCc3cccc(Oc4cnccn4)c3)n2)c1` [Compound 3, [2-(5-Methoxy-pyridin-3-yl)-pyrimidin-4-yl]-[3-(pyrazin-2-yloxy)-benzyl]-amine] was over 10 µM. The value for `COc1cncc(-c2nccc(NCc3ccc(N4CCOCC4)cc3)n2)c1` [Compound 4, [2-(5-Methoxy-pyridin-3-yl)-pyrimidin-4-yl]-(4-morpholin-4-yl-benzyl)-amine] was over 10 µM.

On to `COc1cncc(-c2nccc(NCc3cccc(-n4cccn4)c3)n2)c1` [Compound 5, [2-(5-Methoxy-pyridin-3-yl)-pyrimidin-4-yl]-(3-pyrazol-1-yl-benzyl)-amine], for which the IC50 is 1 to 10 µM. `COc1cncc(-c2nccc(NCc3ccc4c(c3)OCCO4)n2)c1` [Compound 6, (2,3-Dihydro-benzo[1,4]dioxin-6-ylmethyl)-[2-(5-methoxy-pyridin-3-yl)-pyrimidin-4-yl]-amine]: the half-maximal inhibitory concentration (IC50) is over 10 µM.

In the case of `Fc1ccc(Oc2ccc(CNc3ccnc(-c4cncc(F)c4)n3)cc2)cc1` [Compound 7, [4-(4-Fluoro-phenoxy)-benzyl]-[2-(5-fluoro-pyridin-3-yl)-pyrimidin-4-yl]-amine], the IC50 is over 10 µM. As for `CC1(C)Cc2cccc(CNc3ccnc(-c4cncc(F)c4)n3)c2O1` [Compound 8, (2,2-Dimethyl-2,3-dihydro-benzofuran-7-ylmethyl)-[2-(5-fluoro-pyridin-3-yl)-pyrimidin-4-yl]-amine], the half-inhibitory concentration (IC50) is over 10 µM.

As to `Fc1cncc(-c2nccc(NCc3cccc(Oc4cnccn4)c3)n2)c1` [Compound 9, [2-(5-Fluoro-pyridin-3-yl)-pyrimidin-4-yl]-[3-(pyrazin-2-yloxy)-benzyl]-amine], the IC50 is over 10 µM. Then `Fc1cncc(-c2nccc(NCc3ccc(N4CCOCC4)cc3)n2)c1` [Compound 10, [2-(5-Fluoro-pyridin-3-yl)-pyrimidin-4-yl]-(4-morpholin-4-yl-benzyl)-amine], with over 10 µM; and `Fc1cncc(-c2nccc(NCc3cccc(-n4cccn4)c3)n2)c1` [Compound 11, [2-(5-Fluoro-pyridin-3-yl)-pyrimidin-4-yl]-(3-pyrazol-1-yl-benzyl)-amine], with over 10 µM.

Consider `Fc1cncc(-c2nccc(NCc3ccc4c(c3)OCCO4)n2)c1` [Compound 12, (2,3-Dihydro-benzo[1,4]dioxin-6-ylmethyl)-[2-(5-fluoro-pyridin-3-yl)-pyrimidin-4-yl]-amine], for which the IC50 was over 10 µM. Take `O=C(c1cncc(-c2nccc(NCc3ccc(Oc4ccc(F)cc4)cc3)n2)c1)N1CCOCC1` [Compound 13, (5-{4-[4-(4-Fluoro-phenoxy)-benzylamino]-pyrimidin-2-yl}-pyridin-3-yl)-morpholin-4-yl-methanone]: the IC50 is over 10 µM. Regarding `O=C(c1cncc(-c2nccc(NCc3ccc(N4CCOCC4)cc3)n2)c1)N1CCOCC1` [Compound 14, Morpholin-4-yl-{5-[4-(4-morpholin-4-yl-benzylamino)-pyrimidin-2-yl]-pyridin-3-yl}-methanone], the IC50 was over 10 µM. Take `O=C(c1cncc(-c2nccc(NCc3ccc4c(c3)OCCO4)n2)c1)N1CCOCC1` [Compound 15, (5-{4-[(2,3-Dihydro-benzo[1,4]dioxin-6-ylmethyl)-amino]-pyrimidin-2-yl}-pyridin-3-yl)-morpholin-4-yl-methanone]: the IC50 is over 10 µM.

For `COc1cncc(-c2nccc(NCc3ccc(Cl)cc3F)n2)c1` [Compound 16, (4-Chloro-2-fluoro-benzyl)-[2-(5-methoxy-pyridin-3-yl)-pyrimidin-4-yl]-amine], the IC50 lay in the range of 0.1 to 1 µM. `COc1cncc(-c2nccc(NCc3cccc4c3OC(C)(C)C4)n2)c1` [Compound 17, (2,2-Dimethyl-2,3-dihydro-benzofuran-7-ylmethyl)-[2-(5-methoxy-pyridin-3-yl)-pyrimidin-4-yl]-amine]: the IC50 is over 10 µM.

For `CC1(C)Cc2cccc(CNc3ccnc(-c4cncc(Cl)c4)n3)c2O1` [Compound 18, [2-(5-Chloro-pyridin-3-yl)-pyrimidin-4-yl]-(2,2-dimethyl-2,3-dihydro-benzofuran-7-ylmethyl)-amine], the IC50 is over 10 µM. The value for `Clc1cncc(-c2nccc(NCc3cccc(Oc4cnccn4)c3)n2)c1` [Compound 19, [2-(5-Chloro-pyridin-3-yl)-pyrimidin-4-yl]-[3-(pyrazin-2-yloxy)-benzyl]-amine] was over 10 µM; that for `Clc1cncc(-c2nccc(NCc3ccc(N4CCOCC4)cc3)n2)c1` [Compound 20, [2-(5-Chloro-pyridin-3-yl)-pyrimidin-4-yl]-(4-morpholin-4-yl-benzyl)-amine] was over 10 µM. Regarding `COc1ccc(CNc2ccnc(-c3cncc(F)c3)n2)c(F)c1F` [Compound 21, (2,3-Difluoro-4-methoxy-benzyl)-[2-(5-fluoro-pyridin-3-yl)-pyrimidin-4-yl]-amine], the IC50 was in the range of 1 to 10 µM. Then `O=C(c1cncc(-c2nccc(NCc3ccc(Cl)cc3F)n2)c1)N1CCOCC1` [Compound 22, {5-[4-(4-Chloro-2-fluoro-benzylamino)-pyrimidin-2-yl]-pyridin-3-yl}-morpholin-4-yl-methanone], with over 10 µM; and `O=C(c1cncc(-c2nccc(NCc3cccc(Oc4cnccn4)c3)n2)c1)N1CCOCC1` [Compound 23, Morpholin-4-yl-(5-{4-[3-(pyrazin-2-yloxy)-benzylamino]-pyrimidin-2-yl}-pyridin-3-yl)-methanone], with over 10 µM; and `COc1ccc(CNc2ccnc(-c3cncc(C(F)(F)F)c3)n2)c(F)c1F` [Compound 24, (2,3-Difluoro-4-methoxy-benzyl)-[2-(5-trifluoromethyl-pyridin-3-yl)-pyrimidin-4-yl]-amine], with 1 to 10 µM.

Take `Fc1ccc(Oc2ccc(CNc3ccnc(-c4cncc(C(F)(F)F)c4)n3)cc2)cc1` [Compound 25, [4-(4-Fluoro-phenoxy)-benzyl]-[2-(5-trifluoromethyl-pyridin-3-yl)-pyrimidin-4-yl]-amine]: the IC50 is over 10 µM.

Take `CC1(C)Cc2cccc(CNc3ccnc(-c4cncc(C(F)(F)F)c4)n3)c2O1` [Compound 26, (2,2-Dimethyl-2,3-dihydro-benzofuran-7-ylmethyl)-[2-(5-trifluoromethyl-pyridin-3-yl)-pyrimidin-4-yl]-amine]: the IC50 is over 10 µM. The value for `FC(F)(F)c1cncc(-c2nccc(NCc3cccc(Oc4cnccn4)c3)n2)c1` [Compound 27, [3-(Pyrazin-2-yloxy)-benzyl]-[2-(5-trifluoromethyl-pyridin-3-yl)-pyrimidin-4-yl]-amine] was over 10 µM; that for `FC(F)(F)c1cncc(-c2nccc(NCc3ccc(N4CCOCC4)cc3)n2)c1` [Compound 28, (4-Morpholin-4-yl-benzyl)-[2-(5-trifluoromethyl-pyridin-3-yl)-pyrimidin-4-yl]-amine] was over 10 µM; that for `FC(F)(F)c1cncc(-c2nccc(NCc3cccc(-n4cccn4)c3)n2)c1` [Compound 29, (3-Pyrazol-1-yl-benzyl)-[2-(5-trifluoromethyl-pyridin-3-yl)-pyrimidin-4-yl]-amine] was 1 to 10 µM. On to `FC(F)(F)c1cncc(-c2nccc(NCc3ccc4c(c3)OCCO4)n2)c1` [Compound 30, (2,3-Dihydro-benzo[1,4]dioxin-6-ylmethyl)-[2-(5-trifluoromethyl-pyridin-3-yl)-pyrimidin-4-yl]-amine], for which the IC50 was over 10 µM. For the compound `Fc1ccc(Oc2ccc(CNc3ccnc(-c4cncc(Cl)c4)n3)cc2)cc1` [Compound 31, [2-(5-Chloro-pyridin-3-yl)-pyrimidin-4-yl]-[4-(4-fluoro-phenoxy)-benzyl]-amine], the IC50 was over 10 µM.

Turning to `Fc1cc(Cl)ccc1CNc1ccnc(-c2cncc(Cl)c2)n1` [Compound 32, (4-Chloro-2-fluoro-benzyl)-[2-(5-chloro-pyridin-3-yl)-pyrimidin-4-yl]-amine], the IC50 is under 0.1 µM. The value for `Fc1cncc(-c2nccc(NCc3ccc(Cl)cc3F)n2)c1` [Compound 33, (4-Chloro-2-fluoro-benzyl)-[2-(5-fluoro-pyridin-3-yl)-pyrimidin-4-yl]-amine] was under 0.1 µM.
